{"source": "patent US20240293432A1", "about": "“Use of Cannabidiol to Improve Rehabilitation in Lung Cancer” (priority 2023, published 2024)", "key": {"[1]": {"test_system": "LLC lung cancer cell line", "test": "cells", "type": "cell-based, mouse"}, "[2]": {"test_system": "lung tumor-bearing mice (luciferase expressing LLC cells)", "test": "Open field test, elevated plus maze and tumor growth in mice with orthotopic LLC lung tumors", "type": "in vivo, C57BL/6 mice", "description": "FIGS. 5A-5C depict the effects of CBD on behavior in lung tumor bearing mice. […] D-Luciferin (150 mg/kg) was delivered by IP injection 10 minutes prior to imaging. Vehicle or CBD (25 mg/kg) was delivered by oral gavage every alternate day and Open Field (FIG. 5B) and EPM (FIG. 5C) tests were performed. Significant differences between means were determined by ANOVA with Holm Sidack post hoc test.\nEffects of CBD on the behavior of lung tumor-bearing mice: To make a preliminary assessment of the effects of CBD on the behavior of lung tumor-bearing mice, a study was conducted which used the open field test and EPM to determine if behavioral deficiencies observed in FIGS. 4A-4C could be rescued. Lung tumors were initiated in C57BL/6 mice via intratracheal instillation of 5×10^5 luciferase expressing LLC cells (Perkin Elmer) and tumor growth was monitored using the Perkin Elmer In Vivo Imaging System (IVIS). Treatment groups were assigned on day 9 (FIG. 5A) to ensure each group (n=4) contained tumors of approximately the same size based on luminescence readings. CBD (25 mg/kg) or vehicle (2:1:18 parts ethanol:Tween-80:PBS) treatments by oral gavage were started on day 10 and repeated every alternate day, two hours prior to the beginning of behavioral testing. […] This is consistent with previous studies of CBD treatment in naïve mice. […] (FIG. 5B).\nThis may indicate less interest in the corner zone and, therefore, less anxiety. […] The effects of CBD treatment in lung cancer can be investigated using additional tests to measure pain (cold plate, Von Frey, conflict avoidance) and endurance (treadmill) to discover how CBD dose and combination with cancer therapies can improve these outcomes."}, "[3]": {"test_system": "H1975 lung cancer cell line", "test": "CellTiter Glo viability assay, drugs alone or combined with CBD", "type": "cell-based", "description": "Viability after treatment with each cancer drug was compared with and without CBD (*=p<0.05 Student's t test).\nEffects of CBD combination with Standard of Care drugs in lung cancer cells: A study was conducted which screened cannabinoids, including CBD, for their ability to synergize with FDA-approved anti-cancer drugs to reduce the viability of cancer cells in vitro. […] IC50 was calculated using GraphPad Prism (dose-response inhibition), and Combination Index (CI) was calculated using CompuSyn software. […] Because the major driver mutation in this cell line is known (KRAS), the study evaluated potential drug synergy between CBD and the G12D specific KRAS inhibitor MTRX1133."}, "[4]": {"test_system": "LLC flank tumor-bearing mice", "test": "Open field test and elevated plus maze in mice with subcutaneous LLC flank tumors after chemotherapy", "type": "in vivo, C57BL/6 mice", "description": "FIGS. 4A-4C depict that the behavior of mice is altered by tumor growth and by chemotherapy indicating increased pain and anxiety. C57BL/6 mice were inoculated with 5×105 LLC1 on right flank on Day 0. Cisplatin or Osimertinib were administered in doses of 10 mg/kg by intraperitoneal injection on the days indicated. DMSO+sterile saline was used as a vehicle control. Behavior was assayed using the open field test and EPM according to the timeline depicted in FIG. 4A. The open field (FIG. 4B) and EPM (FIG. 4C) tests were recorded using AnyMaze software to track animal speed, movement, and location. Significant differences between means were determined by ANOVA with Holm Sidack post hoc test p<0.05.\nAlterations in behavior in tumor-bearing mice following chemotherapy treatment: To make a preliminary assessment of cancer and chemotherapy-derived symptoms (anxiety, reduced mobility, and pain) in mice, a study was conducted which used the syngeneic Lewis Lung Carcinoma (LLC) model of subcutaneous flank tumors. C57BL/6 mice were injected with 5×10^5 LLC cells on the right flank. Tumor-bearing mice were treated with Cisplatin, Osimertinib, or vehicle, as outlined in FIGS. 5A-5C. The study performed the open field test (a sensory motor test used to measure general activity level) and the elevated plus maze (EPM) (test for anxiety behavior) on tumor-bearing mice throughout the period of tumor growth and treatment (FIG. 4A). In these tests, reduced physical activity was used an indicator of increased pain, and decreases in both distances traveled and time spent mobile over the tumor growth period were observed. […] Overall, the mice spent very little time in the open arms regardless of time point or treatment group making the measure unreliable. […] One limitation of this model is the contribution of tumor location on the hind flank to decreased mobility. To overcome this limitation, future studies can use genetically engineered models of tumor growth in the lungs."}, "[5]": {"details": "25 mg/kg oral gavage every alternate day"}, "[6]": {"details": "LLC flank tumor mice, 10 mg/kg intraperitoneal"}}, "note": "Where two headings read alike, the source gives them in different places."}
{"compound": "C=C(C)[C@@H]1CCC(C)=C[C@H]1c1c(O)cc(CCCCC)cc1O", "note": "[CBD, Cannabidiol]", "values": [{"measurement": "IC50", "setting": "[1]; Mus musculus, 48 hr, combinations with 10 μM CBD, read-out: IC50 (μM), cell viability reduction", "result": 19, "unit": "µM"}, {"measurement": "IC50", "setting": "[1]; Mus musculus, n=3, read-out: IC50 of CBD alone (FIG. 2 legend)", "result": 14.5, "unit": "µM"}, {"measurement": "Number of entries into the corner zone (open field)", "setting": "[2]; [5]", "result": "trending decrease"}, {"measurement": "Time mobile in the EPM", "setting": "[2]; [5]", "result": "significant increases"}, {"measurement": "Time spent in the center zone (open field)", "setting": "[2]; [5]", "result": "significant increases"}, {"measurement": "Time the animal's head was within the open center zone (EPM)", "setting": "[2]; [5]", "result": "significant increases"}, {"measurement": "Distance travelled in the open field test", "setting": "[2]; 25 mg/kg oral gavage every alternate day, initially", "result": "no significant change"}, {"measurement": "Time mobile in the open field", "setting": "[2]; 25 mg/kg oral gavage every alternate day, later as tumor growth progressed", "result": "significant increases"}, {"measurement": "Tumor growth", "setting": "[2]; CBD alone, 25 mg/kg oral gavage, IVIS luminescence", "result": "significant reduction in tumor growth using CBD alone was not observed"}, {"measurement": "IC50", "setting": "[3]; Homo sapiens, NCI-H1975, 48 h, read-out: IC50 (μM), cell viability reduction", "result": 19.5, "unit": "µM"}, {"measurement": "IC50", "setting": "[3]; Homo sapiens, NCI-H1975, read-out: IC50 of CBD alone (FIG. 2 legend)", "result": 21, "unit": "µM"}]}
{"compound": "N.N.[Cl][Pt][Cl]", "note": "[Cisplatin]", "values": [{"measurement": "Anxiety compared to vehicle", "setting": "[4]; [6]", "result": "increased anxiety"}, {"measurement": "Mobility compared to vehicle", "setting": "[4]; [6]", "result": "greater reduction in mobility"}, {"measurement": "Time spent in the open center zone (EPM) compared to vehicle", "setting": "[4]; [6]", "result": "significantly decreased"}, {"measurement": "IC50", "setting": "[1]; 48 hr, combinations with 10 μM CBD, read-out: IC50 (μM), cell viability reduction", "result": 3.1, "unit": "µM"}, {"measurement": "IC50", "setting": "[3]; H1975, 48 hr, combinations with 10 μM CBD, read-out: IC50 (μM), cell viability reduction", "result": 28, "unit": "µM"}]}
{"compound": "C=CC(=O)Nc1cc(Nc2nccc(-c3cn(C)c4ccccc34)n2)c(OC)cc1N(C)CCN(C)C", "note": "[Osimertinib]", "values": [{"measurement": "Time spent in the open center zone (EPM) compared to vehicle", "setting": "[4]; [6]", "result": "significantly decreased"}, {"measurement": "Anxiety compared to vehicle", "setting": "[4]; mouse, in vivo, ip, 10 mg/kg", "result": "increased anxiety"}, {"measurement": "IC50", "setting": "[3]; Homo sapiens, NCI-H1975, H1975, 48 hr, combinations with 10 μM CBD, read-out: IC50 (μM), cell viability reduction", "result": 3.7, "unit": "µM"}]}
